In patent publication US8492422B2, “Ester pro-drugs of [3-(1-(1H-imidazol-4-yl)ethyl)-2-methylphenyl] methanol for treating skin diseases and conditions” (Allergan, Inc., priority 2010, dated 2013):

Assay: In Vitro Human Skin Permeability Assay (static Franz diffusion cells)
Conditions: in vitro Franz diffusion cell; 0.65% (Compound 2) and 0.55% (Compound 1) (w/w) dose; 48 hour dose exposure; 5 mg formulation/cm^2
Method: To assure the integrity of each skin section, its permeability to tritiated water was determined before application of the test products.

Compound: Cc1c(COC(=O)C(C)C)cccc1[C@H](C)c1c[nH]cn1 [Compound 1, iso-Butyric acid 3-[(S)-1-(1H-imidazol-4-yl)-ethyl]-2-methyl-benzyl ester]
- penetration into and through ex vivo human trunk skin (percutaneous absorption): penetrate into and through ex vivo human trunk skin
